Source: patent US11945822B2, “Pyrazolo-triazine and/or pyrazolo-pxrimidine derivatives as selective inhibitor of cyclin dependent kinase” (QURIENT CO., LTD., priority 2018, dated 2024)
pIC50: −log10 of the molar value. Read-outs that look alike come from different tables or passages of the source.

Tests used:
[1] = test system: MM.1S; experiment: Cellular MM.1S viability assay (CellTiter-Glo, 72 hours); type: cell-based; details: Homo sapiens, MM1.S
How it was run: (§1)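 Compound exposure lasted 72 h at 37° C, 5% CO2, over 0.0015–10 uM, DMSO kept under 0.1%, with dosing 24 h after seeding. Seeding: A2780 1×10^3, OVCAR-3 5×10^3, MM.1S 1×10^4 cells/well in 10% FBS RPMI-1640. Duplicate CellTiter-Glo luminescence readout.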

[2] = biological target: T1, CDK2/Cyclin A (Homo sapiens, UniProt P24941); experiment: Enzymatic assay for CDK2 (FRET based LANCE Ultra kinase assay); type: biochemical
T1 construct: purchased Invitrogen PV6290
How it was run: (§2)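 LANCE Ultra TR-FRET: ULight-MBP peptide (68 nM) with ATP at Km, […], 60 min at 23° C. EDTA plus Eu-anti-phospho-MBP added, another 60 min, then 665/615 nm emission read. Compounds tested as 8-dose 4-fold DMSO dilutions.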

[3] = test system: A2780; experiment: Cellular A2780 viability assay (CellTiter-Glo, 72 hours); type: cell-based; details: Homo sapiens
How it was run: as §1

[4] = biological target: T2, CDK7/Cyclin H/MNAT1 (Homo sapiens, UniProt P50613); experiment: Enzymatic assay for CDK7 (FRET based LANCE Ultra kinase assay); type: biochemical
T2 construct: purchased Invitrogen PR6749B
T2 sequence (P50613 whole entry): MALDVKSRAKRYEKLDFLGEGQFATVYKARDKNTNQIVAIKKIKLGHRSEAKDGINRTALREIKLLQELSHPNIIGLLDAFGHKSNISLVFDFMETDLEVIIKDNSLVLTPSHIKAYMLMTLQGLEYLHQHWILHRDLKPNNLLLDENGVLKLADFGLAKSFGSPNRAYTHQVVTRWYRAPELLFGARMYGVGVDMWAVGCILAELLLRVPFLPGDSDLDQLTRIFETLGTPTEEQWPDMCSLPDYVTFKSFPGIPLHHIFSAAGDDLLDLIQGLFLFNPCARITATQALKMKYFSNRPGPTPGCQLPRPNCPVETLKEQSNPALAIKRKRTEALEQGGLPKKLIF
T2 sequence (P51946 whole entry partner): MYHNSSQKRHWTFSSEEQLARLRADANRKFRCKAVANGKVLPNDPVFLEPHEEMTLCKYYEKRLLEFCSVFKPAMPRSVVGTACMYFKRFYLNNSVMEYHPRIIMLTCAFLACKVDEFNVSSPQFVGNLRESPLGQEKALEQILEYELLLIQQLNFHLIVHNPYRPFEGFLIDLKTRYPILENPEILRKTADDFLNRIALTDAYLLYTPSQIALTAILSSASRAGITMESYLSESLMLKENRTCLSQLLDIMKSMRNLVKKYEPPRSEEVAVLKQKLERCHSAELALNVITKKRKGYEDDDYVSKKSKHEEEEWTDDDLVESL
T2 sequence (P51948 whole entry partner): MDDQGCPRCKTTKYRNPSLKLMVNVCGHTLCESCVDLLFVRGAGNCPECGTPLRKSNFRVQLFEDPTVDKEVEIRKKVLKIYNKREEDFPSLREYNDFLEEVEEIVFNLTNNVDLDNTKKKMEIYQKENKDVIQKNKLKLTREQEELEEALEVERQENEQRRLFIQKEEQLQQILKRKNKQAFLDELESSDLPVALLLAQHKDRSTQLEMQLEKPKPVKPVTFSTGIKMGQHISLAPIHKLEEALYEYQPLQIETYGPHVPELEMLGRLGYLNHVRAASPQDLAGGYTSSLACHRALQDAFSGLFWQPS
How it was run: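 Inhibition was measured at Km ATP by time-resolved FRET between a Eu anti-phospho antibody and a phosphorylated ULight peptide. The enzyme was the purified CDK7/cyclin complex, and data were curve-fitted.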

[5] = test system: OVCAR-3; experiment: Cellular OVCAR-3 viability assay (CellTiter-Glo, 72 hours); type: cell-based; details: Homo sapiens
From the text: Human T-cell acute lymphoblastic leukemia cell line, MOLT-4 (ATCC, Cat #CRL-1582), Human multiple myeloma cell line, RPMI-8226 (Invitrogen, Cat #22400-089) and MM.1S (ATCC, Cat #CRL-2974), NSCLC (Non-small cell lung cancer) cell line H460 (ATCC, Cat #HTB-177), Human colon colorectal carcinoma cell line HCT116 (ATCC, Cat #CCL-247), Human acute monocytic leukemia cell line MV4-11 (ATCC, Cat #CRL-9591), OVCAR-3 (ATCC, Cat #HTB-161) and A2780 (ECACC, Cat #93112519) were obtained from ATCC. Cells were grown in RPMI-1640 media (Invitrogen, Cat #22400-089) supplemented with 10% FBS (Invitrogen, Cat #10099141) and 1% penicillin/streptomycin (Invitrogen, Cat #15070063) and cultured at 37° C., 5% CO2 in a humidified chamber. All cell lines were routinely tested for mycoplasma.
The effect of the CDK7 inhibitor to inhibit the growth of target cancer cells was evaluated through the 72 hours time period of viability assay. Briefly, the candidate cell line ware plated in 96 well plate at the following density of cells respectively. 1×10^4 cells/well for MOLT-4, RPMI-8226, MV4-11 and MM.1S, 5×10^3 for H460, HCT116 and OVCAR-3 and IX 10^3 for A2780. After 24 hours, the cells were treated with various concentrations of the compound (ranging from 0.0015 uM to 10 uM). DMSO solvent without compound served as a control and final DMSO concentration less than 0.1%. After 72 hours of incubation at 37° C., 5% CO2 incubator, cells were analyzed for the viability using the CellTiter-Glo Luminescent Cell Viability Assay (Promega, Cat #G7570). All viability assays were performed in duplicate and Luminescence was read using an Envision (Perkin Elmer, USA). Data was analyzed using XLfit software.

[6] = test system: MV4-11; experiment: Cellular MV4-11 viability assay (CellTiter-Glo, 72 hours); type: cell-based; details: Homo sapiens
How it was run: (§3)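 Luminescent ATP read-out (CellTiter-Glo) after 72 h compound exposure at 37 °C/5% CO2; duplicate wells; vehicle control DMSO <0.1% final; seeding density set per cell line.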

[7] = biological target: T3, CDK1/Cyclin B (Homo sapiens, UniProt P06493); experiment: Enzymatic assay for CDK1 (FRET based LANCE Ultra kinase assay); type: biochemical
T3 construct: purchased Invitrogen PR4768C
T3 sequence (P06493 whole entry): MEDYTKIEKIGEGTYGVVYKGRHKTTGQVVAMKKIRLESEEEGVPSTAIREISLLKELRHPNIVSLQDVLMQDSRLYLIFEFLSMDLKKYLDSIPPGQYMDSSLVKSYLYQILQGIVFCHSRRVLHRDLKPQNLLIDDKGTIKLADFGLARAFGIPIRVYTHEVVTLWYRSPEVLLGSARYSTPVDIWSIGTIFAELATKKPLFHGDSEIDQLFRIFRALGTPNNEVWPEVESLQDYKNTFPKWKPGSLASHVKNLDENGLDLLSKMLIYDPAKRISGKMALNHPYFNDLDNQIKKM
T3 sequence (P14635 whole entry partner): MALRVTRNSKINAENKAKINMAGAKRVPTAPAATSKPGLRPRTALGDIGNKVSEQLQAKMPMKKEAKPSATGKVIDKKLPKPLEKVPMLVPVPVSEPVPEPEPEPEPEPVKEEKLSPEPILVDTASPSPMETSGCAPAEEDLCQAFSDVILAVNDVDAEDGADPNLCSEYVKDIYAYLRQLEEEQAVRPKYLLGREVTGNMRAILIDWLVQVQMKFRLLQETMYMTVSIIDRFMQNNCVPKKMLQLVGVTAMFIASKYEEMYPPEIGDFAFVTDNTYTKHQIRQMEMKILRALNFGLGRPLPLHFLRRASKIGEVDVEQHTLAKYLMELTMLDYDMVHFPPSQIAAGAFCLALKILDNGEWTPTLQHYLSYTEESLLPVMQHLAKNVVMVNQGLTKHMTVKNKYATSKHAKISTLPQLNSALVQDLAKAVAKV
How it was run: as §2

[8] = biological target: T4, CDK5/p25 (Homo sapiens, UniProt Q00535); experiment: Enzymatic assay for CDK5 (FRET based LANCE Ultra kinase assay); type: biochemical
T4 construct: purchased Invitrogen PR8543B
T4 sequence (Q00535 whole entry): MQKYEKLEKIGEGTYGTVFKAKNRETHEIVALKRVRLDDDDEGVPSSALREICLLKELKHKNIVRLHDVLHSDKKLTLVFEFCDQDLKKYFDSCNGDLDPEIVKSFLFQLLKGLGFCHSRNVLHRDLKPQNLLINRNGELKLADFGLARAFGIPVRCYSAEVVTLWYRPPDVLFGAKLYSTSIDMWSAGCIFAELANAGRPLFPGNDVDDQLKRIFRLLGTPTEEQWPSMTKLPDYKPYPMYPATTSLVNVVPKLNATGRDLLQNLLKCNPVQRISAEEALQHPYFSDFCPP
T4 sequence (Q15078 99-307 partner limits assumed): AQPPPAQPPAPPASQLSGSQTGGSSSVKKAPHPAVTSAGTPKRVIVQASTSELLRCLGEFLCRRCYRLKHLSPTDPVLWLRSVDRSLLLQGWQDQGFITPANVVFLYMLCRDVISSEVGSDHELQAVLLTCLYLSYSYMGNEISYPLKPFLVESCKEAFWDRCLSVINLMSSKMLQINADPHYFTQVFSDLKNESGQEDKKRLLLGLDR
How it was run: as §2

[9] = test system: H460; experiment: Cellular H460 viability assay (CellTiter-Glo, 72 hours); type: cell-based; details: Homo sapiens, NCI-H460
How it was run: as §3

[10] = test system: RPMI-8226; experiment: Cellular RPMI-8226 viability assay (CellTiter-Glo, 72 hours); type: cell-based; details: Homo sapiens
How it was run: as §3

[11] = test system: HCT116; experiment: Cellular HCT116 viability assay (CellTiter-Glo, 72 hours); type: cell-based; details: Homo sapiens, HCT-116
How it was run: as §3

[12] = read-out: CDK2 enzymatic activity (IC50 range)
[13] = read-out: CDK7 enzymatic activity (IC50 range)
[14] = read-out: CDK1 enzymatic activity (IC50 range)
[15] = read-out: CDK5 enzymatic activity (IC50 range)
[16] = read-out: CDK2 enzymatic activity (IC50 activity range)
[17] = read-out: CDK7 enzymatic activity (IC50 activity range)
[18] = read-out: CDK1 enzymatic activity (IC50 activity range)
[19] = read-out: CDK5 enzymatic activity (IC50 activity range)

Structure (SMILES) | pIC50 [2, 12] | pIC50 [3] | CDK1/CDK7: Selectivity of CDK7 inhibition over CDK1 inhibition ([4]; CDK7 over CDK1) | CDK2/CDK7: Selectivity of CDK7 inhibition over CDK2 inhibition ([4]; CDK7 over CDK2) | CDK5/CDK7: Selectivity of CDK7 inhibition over CDK5 inhibition ([4]; CDK7 over CDK5) | pIC50 [4, 13] | pIC50 [5] | pIC50 [6] | pIC50 [7, 14] | pIC50 [8, 15] | pIC50 [9] | pIC50 [11] | pIC50 [2, 16] | CDK1/CDK7: Selectivity of CDK7 inhibition over CDK1 inhibition ([4]; CDK1/CDK7) | CDK2/CDK7: Selectivity of CDK7 inhibition over CDK2 inhibition ([4]; CDK2/CDK7) | CDK5/CDK7: Selectivity of CDK7 inhibition over CDK5 inhibition ([4]; CDK5/CDK7) | pIC50 [4, 17] | pIC50 [7, 18] | pIC50 [8, 19] | other results
CC(C)c1cnn2c(NCc3ccccc3-n3cccn3)nc(-c3cccc(OC4CCNC4)c3)nc12 (racemic) [Compound 163] | 6.00 to 7.00 | ≥ 6.00 | A (A=greater than 200 fold) | B (B=less than 200 fold, but greater than 20 fold) | B (B=less than 200 fold, but greater than 20 fold) | > 7.00 | 5.00 to 6.00 | > 6.00 | < 6.00 | 6.00 to 7.00 | > 6.00 | – | – | – | – | – | – | – | – | pIC50 [1]: ≥ 6.00
CC(C)c1cnn2c(NCc3ccccc3-c3cc4cccc(NC(=O)C5CC5)c4[nH]3)nc(N3CCC(N)CC3)nc12 [Compound 144] | 6.00 to 7.00 | ≥ 6.00 | B (B=less than 200 fold, but greater than 20 fold) | B (B=less than 200 fold, but greater than 20 fold) | C (C=less than 20 fold) | > 7.00 | 5.00 to 6.00 | > 6.00 | 6.00 to 7.00 | > 7.00 | > 6.00 | > 6.00 | – | – | – | – | – | – | – | pIC50 [10]: > 6.00
CC(C)c1cnn2c(N[C@@H](C)c3ccccc3-n3cc4ccccc4n3)nc(N3CCC(N)CC3)nc12 [Compound 183] | < 6.00 | ≥ 6.00 | A (A=greater than 200 fold) | A (A=greater than 200 fold) | A (A=greater than 200 fold) | > 7.00 | 5.00 to 6.00 | > 6.00 | < 6.00 | < 6.00 | > 6.00 | > 6.00 | – | – | – | – | – | – | – | pIC50 [1]: ≥ 6.00
CC(C)c1cnn2c(NCc3ccccc3-c3ccc4ccccc4n3)nc(N3CCC(O)(CN)CC3)nc12 [Compound 219] | < 6.00 | ≥ 6.00 | A (A=greater than 200 fold) | A (A=greater than 200 fold) | A (A=greater than 200 fold) | > 7.00 | 5.00 to 6.00 | > 6.00 | < 6.00 | < 6.00 | > 6.00 | > 6.00 | – | – | – | – | – | – | – | –
CC(C)c1cnn2c(NCc3ccccc3-c3ccc4ccccc4n3)nc(NC[C@H]3CCNC[C@@H]3O)nc12 [Compound 225] | 6.00 to 7.00 | ≥ 6.00 | A (A=greater than 200 fold) | A (A=greater than 200 fold) | A (A=greater than 200 fold) | > 7.00 | ≥ 6.00 | > 6.00 | < 6.00 | 6.00 to 7.00 | > 6.00 | > 6.00 | – | – | – | – | – | – | – | –
CC(C)c1cnn2c(NCc3ccccc3-c3ccc4ccccc4n3)nc(NCC[C@@H](O)CN)nc12 [Compound 251] | – | ≥ 6.00 | – | – | – | – | 5.00 to 6.00 | > 6.00 | – | – | > 6.00 | – | < 6.00 | A (A=greater than 200 fold) | A (A=greater than 200 fold) | A (A=greater than 200 fold) | > 7.00 | < 6.00 | < 6.00 | –
CC(C)c1cnn2c(NCc3ccccc3-c3ccc4ccccc4n3)nc(N[C@H]3CC[C@@H](O)CC3)nc12 [Compound 265] | – | ≥ 6.00 | – | – | – | – | 5.00 to 6.00 | 5.00 to 6.00 | – | – | > 6.00 | – | < 6.00 | A (A=greater than 200 fold) | A (A=greater than 200 fold) | A (A=greater than 200 fold) | > 7.00 | < 6.00 | < 6.00 | –
CC(C)c1cnn2c(NCc3ccccc3-c3ccc4ccccc4n3)nc(N[C@H]3CC[C@H](O)CC3)nc12 [Compound 266] | – | ≥ 6.00 | – | – | – | – | ≥ 6.00 | 5.00 to 6.00 | – | – | > 6.00 | – | < 6.00 | A (A=greater than 200 fold) | A (A=greater than 200 fold) | A (A=greater than 200 fold) | > 7.00 | < 6.00 | < 6.00 | –
CC(C)c1cnn2c(NCc3ccccc3-c3ccc4ccccc4n3)nc(N3CCNC[C@H]3CO)nc12 [Compound 271] | – | ≥ 6.00 | – | – | – | – | ≥ 6.00 | > 6.00 | – | – | > 6.00 | – | < 6.00 | A (A=greater than 200 fold) | A (A=greater than 200 fold) | A (A=greater than 200 fold) | > 7.00 | < 6.00 | < 6.00 | –
CC(C)c1cnn2c(NCc3c(Cl)cccc3-n3ccc(C(C)(C)O)n3)nc(Nc3cc[nH]c3)nc12 [Compound 277] | – | < 5.00 | – | – | – | – | < 5.00 | – | – | – | – | – | < 6.00 | C (C=less than 20 fold) | C (C=less than 20 fold) | C (C=less than 20 fold) | < 6.00 | < 6.00 | < 6.00 | –
CC(C)c1cnn2c(NCc3ccccc3-c3nccc4cc(NC(=O)CCCN(C)C)ccc34)nc(NC[C@H]3CCNC[C@@H]3O)nc12 [Compound 278] | – | 5.00 to 6.00 | – | – | – | – | < 5.00 | – | – | – | – | – | < 6.00 | A (A=greater than 200 fold) | A (A=greater than 200 fold) | A (A=greater than 200 fold) | > 7.00 | < 6.00 | < 6.00 | –
CC(C)c1cnn2c(NCc3ccccc3-c3nccc4ccccc34)nc(NC[C@H]3CCNC[C@@H]3O)nc12 [Compound 279] | – | ≥ 6.00 | – | – | – | – | 5.00 to 6.00 | – | – | – | – | – | < 6.00 | B (B=less than 200 fold, but greater than 20 fold) | B (B=less than 200 fold, but greater than 20 fold) | B (B=less than 200 fold, but greater than 20 fold) | 6.00 to 7.00 | < 6.00 | < 6.00 | –
